Test results as given in US8206756B2, “Herbal composition for inflammatory disorders” (Piramal Life Sciences Limited, priority 2005, dated 2012).

Legend:
ICAM-1 = assay: Cell-ELISA for adhesion molecule expression in HUVECs: ICAM-1; format: cell-based; conditions: Homo sapiens; TNF-α-induced surface expression, HUVEC
Method: The assay was designed on the basis of reference Transplantation, Vol 63(5), 759-764, 1997 with modifications.
Human Umbilical Vein Endothelial Cells (HUVECs) were obtained from Cascade Biologics and were maintained in M200 (Cascade Biologics, Portland, Oreg.) supplemented with low serum growth supplement (LSGS) at 37° C. in a 5% CO2 incubator. U937 cells (ATCC, Manassas, Va.) were grown in the RPMI 1640 medium supplemented with 10% FBS (Hyclone, Logan, Utah). Recombinant human TNFα, antibodies to VCAM-1, ICAM-1, E-Selectin were obtained from R&D Systems and LPS was obtained from Sigma (St. Louis, Mo.).
HUVECs were plated at […] in 96-well fibronectin-coated plates. The cells were stimulated with TNF-α (10 ng/ml) or LPS (1 μg/ml), 30 min after addition of test compound. After stimulation, cells (E-Selectin and ICAM-1) were fixed with paraformaldehyde in phosphate buffer saline (PBS). Non specific binding was blocked by 2% bovine serum albumin (BSA) in phosphate buffer saline (PBS) for 1 h, and the cells were incubated with primary antibody for 2 h. […] After washing, seven times, 3,3′5,5′-tetramethylbenzidine liquid substrate (TMB substrate) was added and the optical density of each well was determined at 450 nm using a microtitre plate reader (Spectramax, Molecular Devices, Calif.). […] Percent inhibition of the test sample compared to the control is evaluated. […]

IL-1β = assay: LPS-stimulated IL-1β release in hPBMCs (ELISA); format: cell-based; conditions: Homo sapiens; LPS-stimulated hPBMC
Method: Primary screening—Human peripheral blood mononuclear cells (hPBMCs). TNF-α production by lipopolysaccharides (LPS) in hPBMCs was measured according to the method described by Jansky, L. et al (Physiol. Res. 52: 593-598, (2003)). Blood was collected from healthy donors into Potassium EDTA vacutainer tubes (BD vacutainer). The PBMCs were isolated using gradient centrifugation in Histopaque-1077 solution (Sigma). Isolated PBMCs were suspended in RPMI 1640 culture medium (Gibco BRL, Pasley, UK) containing 10% fetal bovine serum (FBS) (Hyclone, Utah, USA), 100 U/ml penicillin (Sigma Chemical Co. St Louis, Mo.) and 100 μg/ml streptomycin (Sigma Chemical Co. St Louis, Mo.). The cell concentration was adjusted to 1×10^6 cells/ml. The viability as determined by trypan blue dye exclusion was uniformly ≧98%. […] The % inhibition was recorded. Percent cytotoxicity of the test samples compared to control was evaluated.
The effect of the plant extract on the proinflammatory cytokines: TNF-α, interleukin-1β (IL-1β), interleukin-6 (IL-6) and interleukin-8 (IL-8) was measured using the supernatants generated in the primary screening assay. […]
The effect of the Compound 1, on the proinflammatory cytokines: TNF-α interleukin-1β (IL-1β), interleukin-6 (IL-6) and interleukin-8 (IL-8) was measured using the supernatants generated in the primary screening assay. […]

TNF-α = assay: LPS-induced TNF-α release in BALB/c mice; format: in vivo; conditions: LPS 1 mg/kg i.p., plasma
Method: The protocol described by Fukuda T. et al (Eur. J. Pharmacol., 391: 317-320, (2000)) was followed. BALB/c mice were divided into groups of ten each. The test sample, suspended in Tween 80 and 0.5% carboxy methylcellulose (CMC), was orally (p.o.) administered to the mice. One hour later, LPS dissolved in sterile, pyrogen-free saline was administered i.p. at the dose of 1 mg/kg. The negative control group received saline as an i.p injection, while all other groups received LPS. Rolipram (30 mg/kg, p.o.) was used as the standard drug. One and a half hours later, under urethane anaesthesia (1.5 g/kg, i.p.) blood was collected from the abdominal artery using a 1 ml syringe flushed with heparin (500 IU/ml). Heparin (5 μl) was used as an anticoagulant in the blood collection tubes. Plasma was separated by centrifugation at 10000 rpm at room temperature, aliquoted and stored at −70° C. until analysis. TNF-α levels in the blood samples were assayed using ELISA and percent inhibition of TNF-α release compared to the control group was calculated.

## C=C1C(=O)OC2C3=C(C)CCCC3(C)CCC12O (centres unmarked) [Compound 1, 3a-hydroxy-5a,9-dimethyl-3-methylene-3a,4,5,5a,6,7,8,9b-octahydro-3H-naphtho[1,2-b]furan-2-one]
ICAM-1
  IC50: 520 nM
IL-1β
  IC50: 400 nM
TNF-α; 10 mg/kg p.o.
  % inhibition of TNF-α release: 28.69 ± 13.71%
TNF-α; 30 mg/kg p.o.
  % inhibition of TNF-α release: 39.98 ± 10.32%
TNF-α; 100 mg/kg p.o.
  % inhibition of TNF-α release: 87.10 ± 3.67%
